Laboratory results reported in US10232043B2, “Photoactivated molecules for light-induced modulation of the activity of electrically excitable cells and methods of using the same” (UNIVERSITY OF SOUTHERN CALIFORNIA, priority 2015, dated 2019).
Entries after “also recorded” stand apart in the source; their conditions may differ.

How the values were obtained:
RCS rats = test: Pupillary light response after eye injection; assay type: in vivo, rat
Text: FIG. 28 illustrates the pupillary light response in RCS rats.
This finding was reproduced in 3 of 3 RCS rats injected with Rubpy-C17, and in 2 of 2 control (sham injection) RCS rats.

[1] = aqueous solution; cited from earlier work
HEK293T cells = test: Voltage-clamp membrane current under light; assay type: cell-based, human; conditions: approximately −80 mV
Experimental: To examine whether light-activated RubpyC17 can directly interact and open or block endogenous ion channels, HEK293T cells were preincubated with RubpyC17, and patch-clamped in a voltage-clamp configuration. Voltage-clamp configuration allowed the cells to be clamped at a potential where most voltage-gated ion channels are closed (approximately −80 mV). […] The current-voltage relationship (see FIGS. 21C and 21D) as well as the steady-state voltage-dependent activation curves of RubpyC17-treated chromaffin cells in voltage-clamp mode before and during light illumination (see FIG. 21E).

[2] = system: mouse adrenal chromaffin cells; test: Perforated patch clamp, light-triggered action potentials; assay type: cell-based
Experimental: Action potentials in chromaffin cells were monitored using perforated patch clamp electrophysiology in current-clamp mode, using an EPC10 amplifier and Pulsemaster data acquisition software (HEKA electronics). A coverslip containing mouse chromaffin cells was transferred to a recording chamber and perfused with extracellular solution. Extracellular solution consists of 140 mM NaCl, 2.8 mM KCl, 10 mM HEPES, 1 mM MgCl2, 2 mM CaCl2, 10 mM glucose, pH adjusted to 7.3, and osmolarity adjusted to 290-300 mOsm. Intracellular solution consisted of 145 mM KCl, 10 mM NaCl, 1 mM MgCl2, and 10 mM HEPES, pH adjusted to 7.3 and osmolarity adjusted to 290-300 mOsm. Perforation solution was prepared by adding 4.5 μl of 125 mg/ml stock of amphoterecin B (Sigma) in DMSO to 1.8 mls of intracellular solution, and homogenizing for 540 s. Perforation was achieved within 3-10 min following gigaseal formation. Series resistances were in the range of 8-22 Mohm. Light stimulation in the blue spectrum originated from a xenon lamp source with an irradiance value of 0.480 mE s^−1 m^−2 through a 470/40 nm bandpass excitation filter. The duration of illumination varied and is indicated by bars on figures.
The behavior of excitable cells (cells capable of firing action potentials) treated with RubpyC17 was next investigated. Perforated patch clamp recording was performed on, mouse adrenal chromaffin cells pretreated with 450-900 nM RubpyC17 for 15-30 minutes before beginning electrophysiological recordings.

chromaffin cells = test: Cell-attached patch test for membrane perforation; assay type: cell-based, mouse; conditions: in patch pipette, RubpyC17 18 μM, 10 min, amphotericin B within 5 min
Text: FIGS. 21A-21H depict data from various experiments related to characteristics of RubpyC17-loaded cells. […] Inset images shown to the right of trace confirmed proper integration of RubpyC17 in patched cells. FIGS. 21C-21E show the light-induced action potential firing in chromaffin cells was not due to biophysical changes in voltage-gated ion channels as there were no significant changes in current-voltage relationships (21C-21D) nor in steady-state activation curve (21E) in RubpyC17-loaded chromaffin cells before (open circle) or during (open circle) light illumination. […] Peak inward currents from each stimulation jump were plotted against corresponding stimulating voltages (n=6). […] Data from representative cell is shown (n=5). […] Currents resulting from capacitor-like behavior of chromaffin cell membranes during hyperpolarizing jumps to −85 mV from a resting membrane potential of −80 mV were recorded 5 min following giga-seal formation for amphoterecin B (bottom trace) or 10 min following giga-seal formation for RubpyC17 (top trace).
Finally, to test whether illumination of RubpyC17 incorporated in cell membranes causes nonspecific membrane poration or other damage, 18 μM RubpyC17 was loaded inside a patch pipette and attached to a cell (gigaseal formation) in the cell-attached configuration. This is the same configuration used routinely for perforated-patch recording. […]

[3] = system: INS, HEK293T and chromaffin cells; test: Imaging RubpyC17 in live cells (membrane integration); assay type: cell-based, rat, human, mouse
Experimental: Cells were imaged at 1-3 days after plating. The glass-bottomed chambers with adherent cells were washed twice with PBS and then filled with standard extracellular solution consisting of 140 mM NaCl, 2.8 mM KCl: 10 mM HEPES, 1 mM MgCl2, 2 mM CaCl2, and 10 mM glucose, pH adjusted to 7.2-7.4 and osmolarity adjusted to 290-310 mOsm. The chamber was then mounted on an Olympus IX70 inverted microscope stage for imaging, using a Cascade 512B EMCCD camera, operated by Metamorph software. Initial imaging was done with, cells in extracellular solution without RubpyC17, first under brightfield to evaluate cell health and morphology, then under widefield argon ion laser illumination at 488 nm (Coherent, Innova 90-5, Santa Clara, Calif.), to evaluate autofluorescence. Next, the extracellular solution was removed and replaced with extracellular solution containing the RubpyC17 compound (10 μM in <0.01% DMSO, final concentrations). Cell images were then acquired with illumination at 488 nm (collected with a long-pass red emission filter). For electrophysiological experiments, RubpyC17 compound was added to the extracellular solution (2-10 μM in <0.01% DMSO, final concentrations as indicated) and cells were incubated for 1.5-45 min, as indicated, then washed with extracellular solution without RubpyC17. Some chromaffin cells were also exposed continuously to 490-900 nM RubpyC17-containing extracellular solution.
Illustrated here are rat insulinoma INS cells (see FIG. 17C, top), human embryonic kidney (HEK293T) cells (see FIG. 17C, middle), and primary cultured mouse chromaffin cells (see FIG. 17C, bottom). […] All cell types preserved morphology for at least 10 minutes. […] One embodiment of the possible light-induced electron transfer is depicted in FIG. 2.

CCCCCCCCCCCCCCCCCc1ccnc(-c2cc(C)ccn2)c1.F[P-](F)(F)(F)(F)F.F[P-](F)(F)(F)(F)F.[Ru+2].c1ccc(-c2ccccn2)nc1.c1ccc(-c2ccccn2)nc1 [RubpyC17, [Ru(bpy)2(bpy-C17)](PF6)2]
pupillary light reflex in injected eye (RCS rats; RCS rat, not in non-injected eye): vigorous pupillary light reflex was observed; also recorded: pupil constricts
time of pupillary light reflex (RCS rats; injected eye): < 3 s
electron transfer rate ket to oxidant ferricyanide [1]: ~6.5e+09 M⁻¹ s⁻¹
light-induced changes in membrane current (HEK293T cells): did not exhibit light-induced changes in membrane current
light effect on action potential firing ([2]; 900 nM RubpyC17 pretreatment, 5 mM ascorbate): triggered action potentials or increased the rate of action potential firing
action potential firing rate of a single cell ([2]; 2 μM for 1.5 min, ascorbate changed for ferricyanide): light-induced increase and then light-induced decrease
reversal of firing effect after light illumination terminated ([2]; chromaffin cells): slow, gradual reversal; also recorded: slowly reversed
shape of action potential waveforms under light ([2]; chromaffin cells): no change in the shape of action potential waveforms
light effect on rate of action potential firing ([2]; ferricyanide 100 μM): decreased the rate of action potential firing
effect of increasing ferricyanide on action potential firing ([2]; ferricyanide from 100 to 200 μM): further suppressed action potential firing
capacitive charging transient (membrane perforation) (chromaffin cells): an increase in the capacitive charging transient was not detected; also recorded: did not perforate chromaffin cells
time for which all cell types preserved morphology ([3]; 10 μM RubpyC17): at least 10 minutes
incorporation into cell membranes (plasma membrane-localized luminescence) ([3]; 10 μM in bath, INS, HEK293T, mouse chromaffin cells): rapidly and stably incorporates into mammalian cell membranes
membrane luminescence after RubpyC17 removal from the bath solution ([3]; at 10 minutes after removal): still observed
